Reference: US9232796B2, “Herbicidal compositions comprising 4-amino-3-chloro-5-fluoro-6-(4-chloro-2-fluoro-3-methoxyphenyl) pyridine-2-carboxylic acid or a derivative thereof and acetyl-CoA carboxylase (ACCase) inhibitors” (DOW AGROSCIENCES LLC, priority 2012, dated 2016)

What was measured:
[1] = test system: CYPDI; assay: Example V post-emergence field trials in direct-seeded rice; type: in vivo, Cyperus difformis; conditions: foliar, field trial Greece
Description: (§1) Multiple field trials were conducted under commercial grower field conditions in Tolima, Colombia; Thessaloniki, Greece; Bianze and Copiano, Italy; and Humphrey, Ark., USA. Trials sites were located in commercially grown fields of direct-seeded rice (Oryza sativa) using standard herbicide small plot research methodology. Plots varied from 2 to 3 meter (m)×5 to 8 m (width×length) with 4 replicates per treatment. The rice crop was grown using normal cultural practices for fertilization, seeding, watering, flooding and maintenance to ensure good growth of the crop and the weeds.
(§2) All treatments in the field trials were applied using a backpack compressed air/gas sprayer with flat fan nozzles (80° or 110°) calibrated to apply 187 to 300 L/ha spray volume at approximately 200-400 kPa nozzle pressure. Commercially available products of cyhalofop-butyl (Clincher 180EC, Clincher 200EC, and Clincher SF (285 gr ai/L EC)) were mixed in water at appropriate formulated product rates to achieve the desired rates based on a unit area of application (hectare) to achieve the desired rates as shown. Treatments were rate at 19 to 58 days after application (DAA) as compared to the untreated control plants. Visual weed control was scored on a scale of 0 to 100 percent where 0 corresponds to no injury and 100 corresponds to complete kill. […]

[2] = test system: CYPRO; assay: Example VI in-water applied ternary mixtures, greenhouse, transplanted paddy rice weeds; type: in vivo, Cyperus rotundus L.
Description: Weed seeds or nutlets of the desired test plant species were planted in puddled soil (mud) prepared by mixing a shredded, non-sterilized mineral soil (50.5 percent silt, 25.5 percent clay, and 24 percent sand, with a pH of about 7.6 and an organic matter content of about 2.9 percent) and water at a 1:1 volumetric ratio. The prepared mud was dispensed in 365 mL aliquots into 16-ounce (oz.) non-perforated plastic pots with a surface area of 86.59 square centimeters (cm^2) leaving a headspace of 3 centimeters (cm) in each pot. Mud was allowed to dry overnight prior to planting or transplanting. Rice seeds were planted in Sun Gro MetroMix® 306 planting mixture, which typically has a pH of 6.0 to 6.8 and an organic matter content of about 30 percent, in plastic plug trays. Seedlings at the second or third leaf stage of growth were transplanted into 860 mL of mud contained in 32-oz. non-perforated plastic pots with a surface area of 86.59 cm^2 4 days prior to herbicide application. The paddy was created by filling the headspace of the pots with 2.5 to 3 cm of water. When required to ensure good germination and healthy plants, a fungicide treatment and/or other chemical or physical treatment was applied. The plants were grown for 4-22 days in a greenhouse with an approximate 14 hr. photoperiod which was maintained at about 29° C. during the day and 26° C. during the night. Nutrients were added as Osmocote® (19:6:12, N:P:K+minor nutrients) at 2 g per 16-oz. pot and 4 g per 32-oz. pot. Water was added on a regular basis to maintain the paddy flood, and supplemental lighting was provided with overhead metal halide 1000-Watt lamps as necessary. The plants were employed for testing when they reached the first through fourth true leaf stage.
Treatments consisted of the benzyl ester of 4-amino-3-chloro-5-fluoro-6-(4-chloro-2-fluoro-3-methoxy-phenyl)pyridine-2-carboxylic acid (Compound A), formulated as an SC (suspension concentrate), an ACCase inhibitor herbicide, and a third herbicidal component, each applied alone and in ternary combination. Forms of compound A were applied on an acid equivalent basis.
The ACCase inhibitor component was applied on an active ingredient basis and included cyhalofop-R-butyl formulated as Clincher® G and metamifop formulated as Metamifop EC. Other herbicidal components were applied on an active ingredient or acid equivalent basis depending on the compound and included penoxsulam formulated as Grasp® SC, bentazon sodium formulated as Basagran®, triclopyr […] (TEA) salt formulated as Grandstand® R, benzobicyclon formulated as Benzobicyclon, benfuresate formulated as Full Slot® WG, pyraclonil formulated as Pyraclon® Flowable, mefenacet (technical grade material), and pretilachlor (technical grade material).
Treatment requirements for each compound or herbicidal component were calculated based upon the rates being tested, the concentration of active ingredient or acid equivalent in the formulation, an application volume of 1 mL per component per pot, and an application area of 86.59 cm^2 per pot.
For formulated compounds, a measured amount was placed in an individual 100 or 200 mL glass vial and was dissolved in a volume of 1.25% (v/v) Agri-Dex® crop oil concentrate to obtain application solutions.
For technical grade compounds, a weighed amount was placed in an individual 100 to 200 mL glass vial and was dissolved in a volume of acetone to obtain concentrated stock solutions.
Applications were made by injecting with a pipetter appropriate amounts of the application solutions, into the aqueous layer of the paddy. Control plants were treated in the same manner with the solvent blank. Applications were made so that all treated plant material received the same concentrations of acetone and crop oil concentrate.
The treated plants and control plants were placed in a greenhouse as described above and water was added as needed to maintain a paddy flood. […]

[3] = test system: CYPIR; assay: Example V post-emergence field trials in direct-seeded rice; type: in vivo, Cyperus iria; conditions: foliar, field trial Tolima, Colombia
Description: as §1, §2

[4] = test system: LEFCH; assay: Example V (second) postemergence foliar-applied ternary mixtures, greenhouse, direct seeded rice weeds; type: in vivo, Leptochloa chinensis (L.) Nees
Description: The treated plants and control plants were placed in a greenhouse as described above and watered by sub-irrigation to prevent wash-off of the test compounds. After approximately 3 weeks, the condition of the test plants as compared with that of the untreated plants was determined visually and scored on a scale of 0 to 100 percent where 0 corresponds to no injury or growth inhibition and 100 corresponds to complete kill.
Colby's equation was used to determine the herbicidal effects expected from the mixtures (Colby, S. R. 1967. Calculation of the synergistic and antagonistic response of herbicide combinations. Weeds 15:20-22.).
The following equation was used to calculate the expected activity of mixtures containing three active ingredients, A, B, and C: Expected=A+B+C−((A×B+A×C+B×C)/100)+(A×B×C/10000)

[5] = test system: ECHCG; assay: Example V post-emergence field trials in direct-seeded rice; type: in vivo, Echinochloa crus-galli; conditions: foliar, field trial Greece
Description: as §1, §2

SMILES: COc1c(Cl)ccc(-c2nc(C(=O)OCc3ccccc3)c(Cl)c(N)c2F)c1F [Compound A Benzyl Ester, benzyl ester of 4-amino-3-chloro-5-fluoro-6-(4-chloro-2-fluoro-3-methoxy-phenyl)pyridine-2-carboxylic acid]
- Visual Weed Control (%) - 55-58 DAA CYPDI Obs ([1]; 24 gae/ha): 81%
- Visual Weed Control (%) - 21 DAA CYPRO Obs ([2]; 2.19 gae/ha): 0%
- Visual Weed Control (%) - 24 DAA CYPRO Obs ([2]; 4 gae/ha): 40%
- Visual Weed Control (%) - 24 DAA CYPRO Obs ([2]; 8 gae/ha): 60%
- Visual Weed Control (%) - 24 DAA CYPRO Obs ([2]; 16 gae/ha): 85%
- Visual Weed Control (%) - 21 DAA CYPRO Obs ([2]; Table 69, 4 gae/ha, 21 DAA): 3%
- Visual Weed Control (%) - 21 DAA CYPRO Obs ([2]; Table 69, 8 gae/ha, 21 DAA): 33%
- Visual Weed Control (%) - 21 DAA CYPRO Obs ([2]; Table 70, 4 gae/ha, 21 DAA): 3%
- Visual Weed Control (%) - 21 DAA CYPRO Obs ([2]; Table 70, 8 gae/ha, 21 DAA): 33%
- Visual Weed Control (%) - 19 DAA CYPIR Obs ([3]; 12 gae/ha): 69%
- Visual Weed Control (%) - 22 DAA LEFCH Obs ([4]; 8 gae/ha): 28%
- Visual Weed Control (%) - 21 DAA LEFCH Obs ([4]; 16 gae/ha): 25%
- Visual Weed Control (%) - 55-58 DAA ECHCG Obs ([5]; 24 gae/ha): 6%

SMILES: CCCCOC(=O)[C@@H](C)Oc1ccc(Oc2ccc(C#N)cc2F)cc1 [Cyhalofop-butyl, butyl(2R)-2-[4-(4-cyano-2-fluorophenoxy)phenoxy]propanoate, reference compound]
- Visual Weed Control (%) - 55-58 DAA CYPDI Obs ([1]; 300 gai/ha): 0%
- Visual Weed Control (%) - 21 DAA CYPRO Obs ([2]; 22.5 gai/ha): 0%
- Visual Weed Control (%) - 21 DAA CYPRO Obs ([2]; 45 gai/ha): 0%
- Visual Weed Control (%) - 24 DAA CYPRO Obs ([2]; 90 gai/ha): 0%
- Visual Weed Control (%) - 24 DAA CYPRO Obs ([2]; 180 gai/ha): 0%
- Visual Weed Control (%) - 21 DAA CYPRO Obs ([2]; Table 69, 90 gai/ha, 21 DAA): 0%
- Visual Weed Control (%) - 21 DAA CYPRO Obs ([2]; Table 69, 180 gai/ha, 21 DAA): 0%
- Visual Weed Control (%) - 21 DAA CYPRO Obs ([2]; Table 70, 180 gai/ha, 21 DAA): 0%
- Visual Weed Control (%) - 19 DAA CYPIR Obs ([3]; 280 gai/ha): 0%
- Visual Weed Control (%) - 21 DAA LEFCH Obs ([4]; 35 gai/ha): 68%
- Visual Weed Control (%) - 22 DAA LEFCH Obs ([4]; 35 gai/ha): 70%
- Visual Weed Control (%) - 55-58 DAA ECHCG Obs ([5]; 300 gai/ha): 29%
